Test results published in patent US10100050B2 (CHIESI FARMACEUTICI S.P.A., priority 2015, dated 2018).
Where a name gives a salt, the structure may show the parent alone.

Assays:
[1] = biological target: T1, p38alpha (Homo sapiens, UniProt Q16539); assay: P38alpha enzyme inhibition assay (Alphascreen kinase activity assay); assay type: biochemical; conditions: IC50 classes; 2 hours preincubation at 25° C., 250 μM ATP; read-out: p38α inhibition
T1 construct: purchased Invitrogen PV3304
Description: P38alpha Enzyme Inhibition Assay
The inhibitory activity of compounds was determined using an Alphascreen® (Perkin Elmer) based kinase activity assay. Kinase reactions consisted of 25 mM HEPES pH 7.5, 10 mM MgCl2, 100 μM Na3VO4, 2 mM DTT, 0.05 mg/ml Tween […] (Invitrogen, PV3304), 1% DMSO and 0.3 μg/ml ATF-2 fusion protein (New England Biolabs, 9224). Compounds were incubated under these conditions for 2 hours, at 25° C., prior to the initiation of the kinase activity by the addition of the 250 μM ATP. Reaction volumes were 20 uL. After 1 hr at 25° C. reactions were stopped by the adding 10 uL of 25 mM HEPES pH 7.5 containing 62.5 mM EDTA, 0.05% Triton X-100, 10% BSA and 0.83 ng/uL anti-phospho-ATF2 antibody (Abcam, ab28812). Detection was performed by measuring luminescence following the addition of Alphascreen Donor beads (Perkin Elmer 6765300) and Protein A Alphascreen Acceptor beads (Perkin Elmer 6760137), both at a final concentration of 20 ug/ml. IC50 values were determined from concentration-response curves.

[2] = system: Peripheral Blood Mononuclear Cells (PBMCs); assay: LPS-stimulated PBMC TNFα release assay; assay type: cell-based; conditions: IC50 classes; human PBMC, LPS 10 ng/ml, 18 h; read-out: LPS-stimulated PBMC TNFα release inhibition
Description: 1-10 nM ‘+’; • <1 nM ‘++’ LPS-Stimulated PBMC TNFα Release Assay
Peripheral Blood Mononuclear Cells (PBMCs) were isolated from healthy human volunteer blood using a standard density gradient centrifugation technique. Citrated blood was placed onto Histopaque™ and centrifuged. The PBMCs were removed from the density gradient interface and washed in phosphate buffered saline (PBS). The PBMCs were suspended in RPMI 1640 medium (without serum), dispensed into a 96-well plate and incubated at 37° C. for 3 h in a humidified incubator. After incubation, the medium was replaced (with medium containing 1% foetal bovine serum) and the plate incubated at 37° C., for 1 h, in the presence of test compound or the appropriate vehicle. LPS (10 ng/ml), or an appropriate vehicle control, was then added to the cells and the plate returned to the incubator for 18 h. Cell-free supernatants were removed and assayed for TNFα levels using MSD plates on the Sector Imager 6000 (MesoScale).
A dose response curve to each test compound was performed and the effect of compound in each experiment was expressed as a percentage inhibition of the control TNFα release. Dose response curves were plotted and compound potency (IC50) was determined. Compounds were tested in at least three separate experiments.

[3] = system: BEAS-2B cells; assay: TNFα-stimulated BEAS-2B IL-8 release assay; assay type: cell-based; conditions: Homo sapiens, IC50 classes, TNF-α 10 ng/ml, 18 h, read-out: TNFα-stimulated BEAS-2B IL-8 release inhibition
Description: TNFα-Stimulated BEAS-2B IL-8 Release Assay
Human bronchial epithelial cell line BEAS-2B was purchased from Sigma (St. Louis, Mo.). BEAS-2B cells were cultured in Bronchial Epithelial cell Growth Medium (BEGM), prepared by supplementing Bronchial Epithelial Basal Medium with SingleQuotes™ (Lonza, Switzerland), which contains retinoic acid, epidermal growth factor, epinephrine, transferrin, triiodothyronin, insulin, hydrocortisone, antimicrobial agents, and bovine pituitary extract. In addition, BEGM medium was supplemented with 2 mM glutamine, 100 U penicillin and 100 μg/ml streptomycin (Life Technologies), in an atmosphere of 95% air and 5% CO2 at 37° C.
BEAS-2B were seeded in 48-well plates at the density of 3×10^4 cells per well, grown to approximately 80-90% confluence. Cells were pre-incubated with p38 inhibitors for 1 hour and then stimulated with TNF-α (10 ng/ml) for 18 h at 37° C. with 5% CO2. Subsequently, supernatants were collected and used for measuring IL-8 levels using a paired antibody quantitative ELISA kit purchased from Life Technologies (detection limit: […]). All the treatments were performed at least in quadruplicate.
A concentration-response curve to each test compound was performed and the effect of compound in each experiment was expressed as a percentage inhibition of the control IL-8 release. Compound potency (IC50) was calculated by the analysis of the sigmoidal dose-response curve (variable slope) elaborated by Graph Pad PRISM4 program.

T1 sequence (Q16539 whole entry): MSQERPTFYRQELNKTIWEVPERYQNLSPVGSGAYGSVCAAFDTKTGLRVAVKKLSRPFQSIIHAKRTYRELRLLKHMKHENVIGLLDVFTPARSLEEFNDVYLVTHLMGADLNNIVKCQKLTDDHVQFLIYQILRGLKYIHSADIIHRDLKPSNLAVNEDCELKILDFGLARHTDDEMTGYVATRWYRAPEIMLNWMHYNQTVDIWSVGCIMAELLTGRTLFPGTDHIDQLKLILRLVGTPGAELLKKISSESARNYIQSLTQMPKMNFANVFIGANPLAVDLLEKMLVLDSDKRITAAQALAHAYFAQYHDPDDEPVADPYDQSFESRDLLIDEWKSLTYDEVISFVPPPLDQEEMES

| SMILES | IC50 [1] [nM] | IC50 [2] [nM] | IC50 [3] [nM] |
| --- | --- | --- | --- |
| COc1ccc(C(C)(C)C)cc1NC(=O)N[C@H]1CC[C@@H](Oc2ccc3nnc([C@@H]4CCCN4C)n3c2)c2ccccc21 [Example 1, hydrochloride salt] | < 1 | < 1 | < 0.3 |
| COc1c(CO)cc(C(C)(C)C)cc1NC(=O)N[C@H]1CC[C@@H](Oc2ccc3nnc([C@@H]4CCCN4C)n3c2)c2ccccc21 [Example 2, 1-(5-tert-Butyl-3-hydroxymethyl-2-methoxy-phenyl)-3-{(1S,4R)-4-[-3-((S)-1-methyl-pyrrolidin-2-yl)-[1,2,4]triazolo[4,3-a]pyridin-6-yloxy]-1,2,3,4-tetrahydro-naphthalen-1-yl}-urea] | < 1 | < 1 | < 0.3 |
| COc1c(NC(=O)N[C@H]2CC[C@@H](Oc3ccc4nnc([C@@H]5CCCN5C)n4c3)c3ccccc32)cc(C(C)(C)C)cc1N(CCO)S(C)(=O)=O [Example 17, N-[5-tert-Butyl-2-methoxy-3-(3-{(1S,4R)-4-[3-((S)-1-methyl-pyrrolidin-2-1)-[1,2,4]triazolo[4,3-a]pyridin-6-yloxy]-1,2,3,4-tetrahydro-naphthalen-1-yl}-ureido)-phenyl]-N-(2-hydroxy-ethyl)-methanesulfonamide formate salt] | 1 to 10 | > 5 |  |
| CN1CCC[C@@H]1c1nnc2ccc(O[C@@H]3CC[C@H](NC(=O)Nc4cc(NS(C)(=O)=O)cc(C(C)(C)C)c4)c4ccccc43)cn12 [Example 22] | < 1 | 1 to 5 |  |
| CC(C)N1CCCC[C@H]1c1nnc2ccc(O[C@@H]3CC[C@H](NC(=O)Nc4cc(NS(C)(=O)=O)cc(C(C)(C)C)c4)c4ccccc43)cn12 [Example 23] | 1 to 10 | > 5 |  |
| CN1CC(C)(C)C[C@H]1c1nnc2ccc(O[C@@H]3CC[C@H](NC(=O)Nc4cc(NS(C)(=O)=O)cc(C(C)(C)C)c4)c4ccccc43)cn12 [Example 26, N-[3-tert-Butyl-5-(3-{(1S,4R)-4-[3-((S)-1,4,4-trimethyl-pyrrolidin-2-yl)-[1,2,4]triazolo[4,3-a]pyridin-6-yloxy]-1,2,3,4-tetrahydro-naphthalenyl}-ureido)-phenyl]-methanesulfonamide] | 1 to 10 | 1 to 5 |  |
| CC(C)N1CCC[C@@]1(C)c1nnc2ccc(O[C@@H]3CC[C@H](NC(=O)Nc4cc(NS(C)(=O)=O)cc(C(C)(C)C)c4)c4ccccc43)cn12 [Example 28, N-[3-tert-Butyl-5-(3-{(1S,4R)-4-[3-((S)-1-isopropyl-2-methyl-pyrrolidin-2-yl)-[1,2,4]triazolo[4,3-a]pyridin-6-yloxy]-1,2,3,4-tetrahydro-naphthalen-1-yl}-ureido)-phenyl]-methanesulfonamide] | < 1 | 1 to 5 |  |
| CC(C)(C)c1cc(NC(=O)N[C@H]2CC[C@@H](Oc3ccc4nnc([C@]5(C)CCCN5)n4c3)c3ccccc32)cc(NS(C)(=O)=O)c1 [Example 29, N-[3-tert-Butyl-5-(3-{(1S,4R)-4-[3-((S)-2-methyl-pyrrolidin-2-yl)-[1,2,4]triazolo[4,3-a]pyridin-6-yloxy]-1,2,3,4-tetrahydro-naphthalen-1-yl}-ureido)-phenyl]-methanesulfonamide] | < 1 | 1 to 5 |  |
| CN1CCC[C@@H](c2nnc3ccc(O[C@@H]4CC[C@H](NC(=O)Nc5cc(NS(C)(=O)=O)cc(C(C)(C)C)c5)c5ccccc54)cn23)C1 [Example 30, N-[3-tert-Butyl-5-(3-{(1S,4R)-4-[3-((R)-1-methyl-piperidin-3-yl)-[1,2,4]triazolo[4,3-a]pyridin-6-yloxy]-1,2,3,4-tetrahydro-naphthalen-1-yl}-ureido)-phenyl]-methanesulfonamide] | 1 to 10 | > 5 |  |
| CC(C)(C)c1cc(NC(=O)N[C@H]2CC[C@@H](Oc3ccc4nnc([C@]5(C)CCCN5CCO)n4c3)c3ccccc32)cc(NS(C)(=O)=O)c1 [Example 32, N-{3-tert-Butyl-5-[3-((1S,4R)-4-{3-[(S)-1-(2-hydroxy-ethyl)-2-methyl-pyrrolidin-2-yl]-[1,2,4]triazolo[4,3-a]pyridin-6-yloxy}-1,2,3,4-tetrahydro-naphthalen-1-yl)-ureido]-phenyl}-methanesulfonamide] | < 1 | 1 to 5 |  |
| CN(C)C(C)(C)c1nnc2ccc(O[C@@H]3CC[C@H](NC(=O)Nc4cc(N)cc(C(C)(C)C)c4)c4ccccc43)cn12 [Example 34] | < 1 | < 1 |  |
| COC(=O)c1cc(NC(=O)N[C@H]2CC[C@@H](Oc3ccc4nnc([C@@H]5CCCN5C)n4c3)c3ccccc32)cc(C(C)(C)C)c1 [Example 40, 3-tert-Butyl-5-(3-{(1S,4R)-4-[3((S)-1-methyl-pyrrolidin-2-yl)-[1,2,4]triazolo[4,3-a]pyridin-6-yloxy]-1,2,3,4-tetrahydro-naphthalen-1-yl}-ureido)-benzoic acid methyl ester] | < 1 | 1 to 5 |  |
| COC(=O)c1cc(NC(=O)N[C@H]2CC[C@@H](Oc3ccc4nnc([C@]5(C)CCCN5C)n4c3)c3ccccc32)cc(C(C)(C)C)c1 [Example 41, 3-tert-Butyl-5-(3-{(1S,4R)-4-[3-((S)-1,2-dimethyl-pyrrolidin-2-yl)-[1,2,4]triazolo[4,3-a]pyridin-6-yloxy]-1,2,3,4-tetrahydro-naphthalen-1-yl}-ureido)-benzoic acid methyl ester] | 1 to 10 |  | < 0.3 |
| CN1CCC[C@@]1(C)c1nnc2ccc(O[C@@H]3CC[C@H](NC(=O)Nc4cc(N5CCOCC5)cc(C(C)(C)C)c4)c4ccccc43)cn12 [Example 48, 1-(3-tert-Butyl-5-morpholin-4-yl-phenyl)-3-{(1S,4R)-4-[3-((S)-1,2-dimethyl-pyrrolidin-2-yl)-[1,2,4]triazolo[4,3-a]pyridin-6-yloxy]-1,2,3,4-tetrahydro-naphthalen-1-yl}-urea] | < 1 | < 1 |  |
| CN1CCC[C@H]1c1nnc2ccc(O[C@@H]3CC[C@H](NC(=O)Nc4cc(C(=O)NCCO)cc(C(C)(C)C)c4)c4ccccc43)cn12 [Example 50, 3-tert-Butyl-N-(2-hydroxy-ethyl)-5-(3-{(1S,4R)-4-[3-((S)-1-methyl-pyrrolidin-2-yl)-[1,2,4]triazolo[4,3-a]pyridin-6-yloxy]-1,2,3,4-tetrahydro-naphthalen-1-yl}-ureido)-benzamide] | < 1 | > 5 |  |
| CN1CCC[C@H]1c1nnc2ccc(O[C@@H]3CC[C@H](NC(=O)Nc4cc(C(N)=O)cc(C(C)(C)C)c4)c4ccccc43)cn12 [Example 52, 3-tert-Butyl-5-(3-{(1S,4R)-4-[3-((S)-1-methyl-pyrrolidin-2-yl)-[1,2,4]triazolo[4,3-a]pyridin-6-yloxy]-1,2,3,4-tetrahydro-naphthalen-1-yl}-ureido)-benzamide] | < 1 | 1 to 5 |  |
| COc1c(NC(=O)N[C@H]2CC[C@@H](Oc3ccc4nnc(N5CCCCC5)n4c3)c3ccccc32)cc(C(C)(C)C)cc1N(CCN(C)C)S(C)(=O)=O [Example 60, N-(5-tert-Butyl-2-methoxy-3-{3-[(1S,4R)-4-(3-piperidin-1-yl-[1,2,4]triazolo[4,3,a]pyridin-6-yloxy)-1,2,3,4-tetrahydro-naphthalen-1-yl]-ureido}-phenyl-N-(2-dimethylamino-ethyl)-methanesulfonamide formate salt] | 1 to 10 | > 5 |  |
